Laboratory results reported in US11452764B2, “Inhibiting FAK-AKT interaction to inhibit metastasis” (Board of Trustees of Michigan State University, priority 2017, dated 2022).
Entries after “also recorded” stand apart in the source; their conditions may differ.

Legend:
[1] = test system: FAK-Tyr-397 phosphorylation; experiment: FAK-Y397 western blotting in suspended SW620 cells at ambient or 15 mmHg increased pressure (ZINC compounds); format: cell-based, human; conditions: 50 μM
Source text: (§1) Extracellular pressure was increased by 15 mmHg over ambient pressure using a temperature and pressure-controlled box as described by Basson et al. (J Cell Biochem, 78: 47-61 (2000)).
Cells were maintained at ambient or increased pressure in bacteriologic plastic dishes pacificated with heat-inactivated bovine serum albumin to prevent adhesion and avoid adhesion-associated background FAK activation. Cells were lysed in lysis buffer, resolved by 10% SDS-PAGE, transferred to nitrocellulose and blotted with antibody to Tyr-397-phosphorylated FAK (rabbit monoclonal ab81298, Abcam, San Francisco, Calif., USA) and anti-rabbit 680 (LI-COR Inc. Lincoln, Nebr., USA), before quantitation using Kodak Scientific Imaging Systems 1D, V.3.5.4 (Zeng et al., Oncotarget, 8 98051-98067 (2017)). Total FAK (Anti-FAK, clone 4.47 Merck, Darmstadt, Germany with secondary anti-mouse 800, LI-COR Inc. Lincoln, Nebr., USA) served as a loading control. FAK and Tyr-397-phosphorylated FAK western blots yielded doublets similar to those previously observed by others (McConnell et al. Mol Cancer 10: 75 (2011); Aflaki et al. Cell Mol Life Sci, 68: 3933-3947 (2011)); Das et al. Cancer Res, 72: 6217-6226 (2012); Ammoun et al. Oncogene, 31: 1710-1722 (2012)). Both bands were quantitated together.
Four structurally similar molecules to the FAK-derived sequence LAHPP (SEQ ID NO:25) (Table 2) were evaluated for their ability to prevent FAK activation by 15 mmHg increased extracellular pressure in human SW620 colon cancer cells. […] The structures of these compounds are shown below (and in FIG. 17).

[2] = test system: SW620 colon cancer cells; experiment: Adhesion assay of SW620 cells to collagen I at ambient or 15 mmHg increased pressure (ZINC compounds); format: cell-based, human; conditions: 30 minutes; for Concentration at which pressure stimulated adhesion was blocked / Pressure stimulated adhesion: 15 mmHg; for Pressure stimulated adhesion / Basal adhesion: concentrations studied 10-200 μM (per compound in Table 3); for Basal adhesion: ambient pressure
Procedure: as §1
Cells were seeded in an amount of 50,000 cells/well into 24 well plates precoated with collagen I (Sigma, St. Louis, Mo., USA) at 37° C. under ambient or 15 mmHg increased pressure as described by Basson et al. J Cell Biochem 78: 47-61 (2000)). After 30 minutes, non-adherent cells were washed away. Adherent cells were stained with MTS (CellTiter 96® AQueous One Solution Cell Proliferation Assay, Madison, Wis., USA) and plates were read at 490 nm.
Seven molecules were studied that structurally mimic AAHPSEE (SEQ ID NO:24), including five analogs of ZINC04085549 (FIG. 16A-16G). These molecules' effects on basal and pressure-stimulated human SW620 colon cancer cell adhesion to collagen I were assayed first. Most molecules had no effect at the concentrations studied (Table 3).

[3] = molecular target: Akt1 (Homo sapiens, UniProt P31749); conditions: Zeng et al., Oncotarget 2017; cited from earlier work
Sequence of Akt1 (P31749 whole entry, species assumed): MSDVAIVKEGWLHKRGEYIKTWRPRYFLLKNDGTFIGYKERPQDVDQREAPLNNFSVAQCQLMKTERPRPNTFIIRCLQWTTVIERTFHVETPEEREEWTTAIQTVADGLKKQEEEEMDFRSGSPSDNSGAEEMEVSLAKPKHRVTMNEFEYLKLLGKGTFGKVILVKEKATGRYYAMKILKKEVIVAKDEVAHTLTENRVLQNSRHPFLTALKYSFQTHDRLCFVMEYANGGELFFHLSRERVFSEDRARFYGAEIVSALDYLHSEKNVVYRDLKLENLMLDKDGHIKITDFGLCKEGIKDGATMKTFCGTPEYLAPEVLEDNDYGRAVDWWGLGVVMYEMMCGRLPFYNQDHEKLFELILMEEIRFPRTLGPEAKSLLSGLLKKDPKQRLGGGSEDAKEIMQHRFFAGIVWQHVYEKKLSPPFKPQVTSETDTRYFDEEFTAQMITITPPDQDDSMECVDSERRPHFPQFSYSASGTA

Compound	Basal ambient pressure FAK-Tyr-397 phosphorylation ([1]; suspended SW620)	Pressure-stimulated FAK-Tyr-397 phosphorylation ([1]; suspended SW620, 15 mmHg)	Concentration at which pressure stimulated adhesion was blocked [2]	Pressure stimulated adhesion [2]	Basal adhesion [2]	Competition with FAK for binding to AKT1 [3]
Cc1ccccc1C(=O)O/N=C1\CCCCC1c1ccc([N+](=O)[O-])cc1[N+](=O)[O-] (stereo not drawn) [ZINC04085549]	without affecting basal ambient pressure FAK-Tyr-397 phosphorylation	prevented pressure-stimulated FAK-Tyr-397 phosphorylation	≥50 µM	prevented pressure-stimulated increases in SW620 adhesion; also recorded: Blocked	without altering basal adhesiveness at ambient pressure; also recorded: Maintained	–
COc1ccc(C(=O)O/N=C2\CCCCC2c2ccc([N+](=O)[O-])cc2[N+](=O)[O-])cc1 (stereo not drawn) [ZINC4085554]	–	–	≥50 µM	prevented pressure-stimulated increases in SW620 adhesion; also recorded: Blocked	without altering basal adhesiveness at ambient pressure; also recorded: Maintained	–
AAHPSEE [two-site mutant of FAK residues 113-119, more helical analog used as screening query]	–	–	–	–	–	effectively compete with FAK for binding to AKT1
